Experiments:
PARP1 [1] = biological target: T1, PARP1 (Homo sapiens (Human), UniProt P09874); assay: PARP1 protein expression level in MDA-MB-231 cells; format: cell-based; conditions: 24 hours
Description: The cells were collected into a 1.5 mL centrifuge tube, 25 μL of RIPA lysis buffer (containing 1× protease inhibitor cocktail) was added, and the cells were lysed on ice for 15 minutes and centrifuged at 12000 rpm/min at 4° C. for 10 minutes. The supernatant was collected and the protein content was determined using the BCA method. […] DC50 values were calculated using a four-parameter non-linear fitting model in Graphpad 8.3.0 software.

[2] = tested on: breast tumor cells MDA-MB-436; assay: MDA-MB-436 cell activity test (CellTiter-Glo, 7 days); format: cell-based, human; conditions: Homo sapiens
Description: Breast tumor cells MDA-MB-436 were purchased from ATCC, the culture medium was Leibovitz's L-15+10% FBS, and the cells were cultured in a CO2-free incubator at 37° C. On day 1, the cells in the exponential growth phase were collected, and the cell suspension was adjusted to 4000 cells/135 μL with the culture medium. 135 μL of the cell suspension was added to each well of a 96-well cell culture plate and incubated overnight. On day 2, compounds at different concentrations were added, and the plate was placed in the incubator and incubated for 7 days. After the culture was completed, according to operation instructions for a CellTiter-Glo kit (Promega, G7573), 75 μL of CTG solution, which was already pre-melted and equilibrated to room temperature, was added to each well, and the mixture was uniformly mixed for 2 minutes using a microplate shaker. The plate was placed at room temperature for 10 minutes, and then […] signal values were determined using an Envision2104 plate reader (PerkinElmer). The inhibition rate was calculated using formula (1), where RLUcompound was the readout of the drug treated group, RLUcontrol was the average value of the solvent control group, and RLUblank was the average value of the cell-free well. The IC50 value was calculated using GraphPad Prism software.

PARP1 [3] = biological target: T1, PARP1; assay: PARP1 protein expression level in MDA-MB-436 cells; format: cell-based; conditions: 100 nM, 24 hours
Description: (§1) MDA-MB-436 cells were placed in a complete DMEM medium (supplemented with 15% FBS; 10 μg/mL Insulin; 16 μg/mL Glutathione and 1% penicillin-streptomycin solution), and cultured at 37° C. under CO2-free conditions. The cells in the logarithmic growth phase were collected, the cell density was adjusted to 2×10^5 cells/well with the culture medium, and the cells were added to a 6-well cell culture plate at a volume of 1 mL/well. The compound to be tested was prepared to 2-fold the final concentration, 1 mL of the compounds at different concentrations were added to administration wells, a medium containing 0.2% DMSO was added to control wells, and the plate was incubated for 24 hours at 37° C. The cells were collected into a 1.5 mL centrifuge tube, 25 μL of RIPA lysis buffer (containing 1× protease inhibitor cocktail) was added, and the cells were lysed on ice for 15 minutes and centrifuged at 12000 rpm/min at 4° C. for 10 minutes. The supernatant was collected and the protein content was determined using the BCA method. The protein sample to be tested was diluted to 0.8 mg/mL, PARP1 was detected using a fully automated protein expression quantitative analyzer (ProteinSimple), and the internal reference protein was 3-actin (both antibodies were from CST). The software (Compass for SW) of the fully automated protein expression quantitative analyzer was used to process the raw data and calculate the peak area and the PARP1 expression rate relative to the control group.
as §1, with “L-15” for “DMEM”, “mL/well and cultured overnight. On day 2, the” for “mL/well. The”, “group. DC50 values were calculated using a four-parameter non-linear fitting model in Graphpad 8.3.0 software.” for “group.”

[4] = Pharmacokinetic test in rats; format: in vivo, SD rats
Description: 7.1 Experimental animals: male SD rats, about 220 g, 6-8 weeks old, 6 rats/compound, purchased from Chengdu Ddossy Experimental Animals Co., Ltd.
7.2 Experimental design: on the day of the experiment, 12 SD rats were randomly grouped according to their body weights. The animals were fasted with water available for 12 to 14 h one day before the administration, and were fed 4 h after the administration.
(§2) Before and after the administration, 0.15 mL of blood was taken from the orbit of the animals under isoflurane anesthesia and placed in an EDTAK2 centrifuge tube. The blood was centrifuged at 5000 rpm and 4° C. for 10 min to collect plasma. The blood collection time points for the intravenous administration group and intragastric administration group were: 0, 5 min, 15 min, 30 min, 1 h, 2 h, 4 h, 6 h, 8 h, and 24 h. Before analysis and detection, all samples were stored at −80° C. The samples were analyzed quantitatively by LC-MS/MS.

[5] = Pharmacokinetic test in mice; format: in vivo, ICR mice
Description: 8.1 Experimental animals: male ICR mice, 20 to 25 g, 18 mice/compound, purchased from Chengdu Ddossy Experimental Animals Co., Ltd.
8.2 Experimental design: on the day of the experiment, 36 ICR mice were randomly grouped according to their body weights. The animals were fasted with water available for 12 to 14 h one day before the administration, and were fed 4 h after the administration.
as §2, with “0.06” for “0.15”, “intravenous” for “intravenous administration”, “0 min,” for “0,”

[6] = male, SD, rat, iv, i.v. 2.5 mg/kg, plasma
[7] = male, ICR, mouse, iv, i.v. 2.5 mg/kg, plasma

T1 sequence (P09874 whole entry): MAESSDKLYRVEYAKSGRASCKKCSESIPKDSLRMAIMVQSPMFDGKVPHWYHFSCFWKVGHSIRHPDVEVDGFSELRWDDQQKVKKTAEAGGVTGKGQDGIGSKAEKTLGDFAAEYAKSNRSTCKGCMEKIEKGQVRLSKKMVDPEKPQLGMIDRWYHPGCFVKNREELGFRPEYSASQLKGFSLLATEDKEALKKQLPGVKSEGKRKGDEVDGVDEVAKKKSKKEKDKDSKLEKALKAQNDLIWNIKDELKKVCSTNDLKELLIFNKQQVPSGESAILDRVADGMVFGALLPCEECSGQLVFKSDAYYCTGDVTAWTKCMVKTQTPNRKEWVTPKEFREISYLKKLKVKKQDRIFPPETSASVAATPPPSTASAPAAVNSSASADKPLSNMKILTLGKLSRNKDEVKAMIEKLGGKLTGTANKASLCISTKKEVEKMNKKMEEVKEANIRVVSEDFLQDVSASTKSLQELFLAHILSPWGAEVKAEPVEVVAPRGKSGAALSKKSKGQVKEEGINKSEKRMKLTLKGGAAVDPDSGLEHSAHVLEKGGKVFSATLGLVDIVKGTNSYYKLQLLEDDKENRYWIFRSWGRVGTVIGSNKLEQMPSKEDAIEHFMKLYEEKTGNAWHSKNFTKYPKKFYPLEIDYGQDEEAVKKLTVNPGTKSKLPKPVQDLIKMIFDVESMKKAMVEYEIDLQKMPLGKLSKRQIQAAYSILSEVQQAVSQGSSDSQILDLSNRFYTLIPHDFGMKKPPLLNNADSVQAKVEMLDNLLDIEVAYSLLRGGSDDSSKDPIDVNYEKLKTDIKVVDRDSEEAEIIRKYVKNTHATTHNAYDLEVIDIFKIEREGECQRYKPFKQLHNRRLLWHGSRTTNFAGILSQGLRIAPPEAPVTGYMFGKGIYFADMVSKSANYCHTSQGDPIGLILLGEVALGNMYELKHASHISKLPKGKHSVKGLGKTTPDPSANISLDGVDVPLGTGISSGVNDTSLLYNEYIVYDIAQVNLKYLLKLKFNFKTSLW

DC50 (PARP1 [1])	IC50 ([2]; MDA-MB-436, 168 h, MDA-MB-436 cells, 7 days incubation, read-out: IC50 (nM), MDA-MB-436 cell inhibitory activity)	PARP1 degradation rate @ 100 nM (PARP1 [3])	pharmacokinetic characteristics [4]	F ([4]; i.g. 10 mg/kg)	AUC(0-t) [4, 6]	clearance [4, 6]	Vd ([4]; male, SD, rat, iv, i.v. 2.5 mg/kg, plasma, read-out: Vdss)	AUC(0-t) ([4]; male, SD, rat, po, i.g. 10 mg/kg, plasma)	pharmacokinetic characteristics [5]	F ([5]; i.g. 10 mg/kg)	AUC(0-t) [5, 7]	clearance [5, 7]	Vd ([5]; male, ICR, mouse, iv, i.v. 2.5 mg/kg, plasma, read-out: Vdss)	AUC(0-t) ([5]; male, ICR, mouse, po, i.g. 10 mg/kg, plasma)	Compound	inhibition at 10 µM ([2]; MDA-MB-436, MDA-MB-436 cells, 10 μM, read-out: Max inh. % 10 μM)
0.12 nM															CCc1cc2ncc(CN3CCN(c4ccc(C(=O)NC5CN(C6CCN(c7ccc8c(c7)C(=O)N(C7CCC(=O)NC7=O)C8=O)CC6)C5)nc4)CC3)cc2[nH]c1=O (stereo not shown) [Compound 5, N-(1-(1-(2-(2,6-dioxopiperidin-3-yl)-1,3-dioxoisoindolin-5-yl)piperidin-4-yl)azetidin-3-yl)-5-(4-((7-ethyl-6-oxo-5,6-dihydro-1,5-naphthyridin-3-yl)methyl)piperazin-1-yl)picolinamide]	
	6 nM	79.6%	good pharmacokinetic characteristics	6.2%	51400 ng·h/mL	0.713 mL/min/kg	0.366 L/kg	12800 ng·h/mL	good pharmacokinetic characteristics	15.6%	224000 ng·h/mL	0.0968 mL/min/kg	0.189 L/kg	140000 ng·h/mL	CCc1cc2ncc(CN3CC=C(c4ccc(C(=O)Nc5cnn(C6CCN(c7ccc8c(c7)C(=O)N(C7CCC(=O)NC7=O)C8=O)CC6)c5)nc4)CC3)cc2[nH]c1=O (stereo not shown) [Compound 58, N-(1-(1-(2-(2,6-dioxopiperidin-3-yl)-1,3-dioxoisoindolin-5-yl)piperidin-4-yl)-1H-pyrazol-4-yl)-1′-((7-ethyl-6-oxo-5,6-dihydro-1,5-naphthyridin-3-yl)methyl)-1′,2′,3′,6′-tetrahydro-[3,4′-bipyridine]-6-carboxamide]	87.2%
